According to patent publication US20080233221A1, “Prostate cancer and benign prostatic hyperplasia treatments” (State of Oregon, priority 2007, published 2008):

Tests used:
Type in all cases: cell-based, human
BPH-1 cells [1] = test: Annexin V (nexin) apoptosis assay in BPH-1 cells; settings: 20 μM
Method: FIG. 4 sets forth data relating to xanthohumol and xanthoaurenol induction of apoptosis in BPH-1 and PC-3 cells. Cells were treated with XN and XAL and apoptosis was detected using the Annexin V assay. Externalization of phosphatidyl serine, an early marker of apoptosis was detected by flow cytometry after staining with Annexin V-PE and 7AAD. Annexin V(+) 7AAD(−) cells are undergoing early apoptosis, and Annexin V(+) 7AAD(+) are undergoing late apoptosis. Values are mean±SD, n=3. *P<0.05, **P<0.01.
(§1) At various times after treatment with XN or XAL, adherent and floating cells were collected for analysis. Apoptosis was assessed using a flow cytometry based nexin and multicaspase assay kits (Guava Technologies, Burlingame, Calif.). The nexin assay is based on measurement of externalization of phosphatidyl serine, a common characteristic of cells undergoing apoptosis. The multicaspase assay is based on measurement of caspase enzymes activated during apoptosis. Cells were trypsinized, washed in D-PBS and stained with Annexin V, sulforhodamine-valyl-alanyl-aspartyl-fluoromethyl-ketone (SR-VAD-FMK), and 7-amino-actinomycin D (7AAD) according to the manufactures instructions. Cell populations were quantified using Guava personal cytometer (Guava Technologies, Burlingame, Calif.).

PC-3 cells [2] = test: Cell viability by MTT assay in PC-3 cells; settings: PC3 cells, 48 h; for cell viability (number of viable cells): MTT
Method: (§2) Human benign prostate hyperplasia epithelial cells (BPH-1) were obtained from Dr. Simon W. Hayward (Vanderbilt University, Nashville, Tenn.) and malignant androgen-independent prostate cancer epithelial cells (PC-3) were obtained from American Type Tissue Collection (Manassas, Va.). Cells were grown and maintained in RPMI 1640 with glutamine (Mediatech, Inc., Herndon, Va.) supplemented with 5% (BPH-1) or 10% (PC-3) fetal bovine serum (Hyclone, Logan, Utah) and 1% penicillin-streptomycin (Mediatech, Inc., Herndon, Va.). All cell types were maintained in 5% CO2 at 37° C.
(§3) XN was isolated from hop cones as described previously (Stevens et al., J. Chromatogr. A 832 (1999) 97-107). Its oxidation product, xanthoaurenol (XAL), was prepared from xanthohumol (XN) by treatment with peroxynitrite. The structure of XAL was determined by mass spectrometry, NMR spectroscopy and X-ray diffraction analysis. Prenylflavonoids were dissolved in 100% methanol and were added to the culture medium at a final concentration of 2.5-200 μmol/L, depending on desired treatment. All treatments were done at approximately 50-70% confluency. As a control, methanol was added to culture medium equivalent to hop treatment.
(§4) Cells were seeded into 24-well plates (50,000 cells per well). After 24 h, cells were treated with either XN or XAL as described above. Cell viability was evaluated by MTT assay as described by Mossmann et al., J. Immunol. Methods 65 (1983) 55-63. Production of formazan product was detected in a Molecular Devices SpectraMax (Molecular Devices, Sunnyvale, Calif.) at 580 nm.

NFκB [3] = test: NFκB activation, transcription factor binding ELISA, PC3 cells
Method: (§5) FIG. 5 sets forth data relating to xanthohumol and xanthoaurenol inhibit NFκB activation in nuclear extracts of BPH-1 cells. Cells were treated with XN or XAL for 48 h. (A) Cells were harvested by scraping and then subjected to nuclear extraction. NFκB activation was determined using transcription factor binding ELISA as described in Section 2. Equal protein loading was confirmed using β-actin. Results are representative of two or more separate experiments. (B) BPH-1 cells were treated with XN or XAL for 48 h and detection of p65 nuclear protein was performed with immunoblotting methods. (C) No inhibition of NFκB activation in treated PC3 cells. Results are mean±SD, n=3. **P<0.01.
(§6) NFκB Activity was measured using Trans AM NFκB p65/p50 Transcription Factor Assay Kit (Active Motif, CA). Cytosolic and nuclear extracts were prepared from cells by using Nuclear Extraction Kit (Active Motif, Carlsbad, Calif.). Nuclear extract samples (10 μg) were added to a 96 well plate with immobilized oligonucleotide containing the NFκB consensus site (5′-GGGACTTTCC-3′). Sample wells were incubated with primary antibody specific for NFκB, followed by incubation with an HRP-conjugated secondary antibody, followed by quantification at OD 580 using a plate reader (Molecular Devices, Sunnyvale, Calif.).

BPH-1 cells [4] = test: Cell cycle analysis (propidium iodide flow cytometry) in BPH-1 cells; settings: for cell cycle modification: 10 and 20 μM
Method: At various time points after treatment with XN and XAL, adherent and floating cells were collected and fixed in 70% ethanol at one million cells per aliqout. Samples were centrifuged at 500×g, washed with PBS, and resuspended in cellular DNA staining solution containing […] propidium iodide (Sigma, St Louis, Mo.) and 100 μg/mL RNase (Sigma, St Louis, Mo.) in PBS. After 30-min incubation at room temperature, cell populations were quantified using Guava personal cytometer. Data analysis was performed using Multi Cycle software (Phoenix Flow Systems, San Diego, Calif.).
In Table 1, Cells were treated with 0, 10 or 20 μM XN or XAL, as indicated, and harvested after 48 h. Attached and floating cells were fixed in 70% ethanol and stained with propidium iodide, and cell cycle kinetics were examined using the Guava PCA, followed by data analysis with Multi-Cycle software.

NFκB [5] = test: NFκB activation, transcription factor binding ELISA, nuclear extracts of BPH-1 cells; settings: 20 μM, 48 h
Method: as §5, §6

BPH-1 cells [6] = test: Multicaspase assay (SR-VAD-FMK/7AAD flow cytometry) in BPH-1 cells; settings: 48 h
Method: (§7) FIG. 3 sets forth data relating to xanthohumol and xanthoaurenol induction of caspase activity in BPH-1 and PC-3 cells. Cells were treated with XN or XAL for 48 h. Induction of apoptosis was measured using a multi-caspase assay. SR-VAD-FMK covalently binds caspases and positively stained cells were assessed by flow cytometry as a measure of caspase activation. 7-Amino-actinomycin D (7AAD), a nucleotide stain that only stains cells when membrane integrity is compromised, was used to differentiate between early and late apoptotic cells. SR-VAD-FMK(+) 7AAD(−) cells are undergoing early-mid apoptosis, […] late stage apoptotic cells. Values are mean±SD, n=3. *P<0.05, **P<0.01.
as §1

NFκB p65 = test: Immunoblot of p65 nuclear protein in BPH-1 cells; settings: 48 h
Method: as §5
Cells were lysed in RIPA buffer and whole cell lysate protein concentrations were determined using a detergent-compatible protein assay (BioRad, CA). Proteins (15-35 μg) were separated by SDS-PAGE under standard conditions and were transferred to a nitrocellulose membrane (Biorad, CA) at 300 mA for 2 h. […] Protein was detected using chemiluminescence reagents (Pierce, Rockford, Ill.) with image analysis on Alpha Innotech photodocumentation system (Alpha Innotech, Hayward, Calif.).

PC-3 cells [7] = test: Multicaspase assay (SR-VAD-FMK/7AAD flow cytometry) in PC-3 cells; settings: 48 h
Method: as §7
as §1, with “Cells were trypsinized, washed in D-PBS and stained with Annexin V, sulforhodamine-valyl-alanyl-aspartyl-fluoromethyl-ketone (SR-VAD-FMK), and 7-amino-actinomycin D (7AAD) according to the manufactures instructions.” left out

[8] = system: pro-apoptotic proteins Bax and p53 and anti-apoptotic protein Bcl-2; test: Western blot of Bax, p53 and Bcl-2 in whole cell lysates of BPH-1 cells; settings: for expression of pro-apoptotic protein Bax / expression of pro-apoptotic protein p53: 10 and 20 μM; for expression of pro-apoptotic protein Bax / expression of pro-apoptotic protein p53 / expression of anti-apoptotic protein Bcl-2: 48 h
Method: FIG. 6 sets forth data relating to xanthohumol and xanthoaurenol induce expression of proapoptotic proteins p53 and bax, with down-regulation of antiapoptotic proteins bcl-2 in BPH-1 cells. Western blot of pro-apoptotic proteins Bax and p53 and anti-apoptotic protein Bcl-2 were performed from whole cell lysates of BPH-1 cells treated with XN and XAL for 48 h. Blots are representative of three individual experiments.
Cells were lysed in RIPA buffer and whole cell lysate protein concentrations were determined using a detergent-compatible protein assay (BioRad, CA). Proteins (15-35 μg) were separated by SDS-PAGE under standard conditions and were transferred to a nitrocellulose membrane (Biorad, CA) at 300 mA for 2 h. Antibody dilutions were as follows: Bax (BD Pharmingen, 1:500 dilution), Bcl-2 (Santa Cruz Biotechnology, 1:1000 dilution), p53 (Santa Cruz Biotechnology, 1:1000 dilution), NFκB p65 (Santa Cruz Biotechnology, 1:1000 dilution), actin (Sigma, 1:5000 dilution). Actin was used to confirm equal protein loading between samples. Protein was detected using chemiluminescence reagents (Pierce, Rockford, Ill.) with image analysis on Alpha Innotech photodocumentation system (Alpha Innotech, Hayward, Calif.).

BPH-1 cells [9] = test: Cell viability by MTT assay in BPH-1 cells; settings: BPH-1 cells, 48 h; for cell viability (number of viable cells): MTT
Method: as §2, §3, §4

[10] = Cell viability by MTT assay in PC-3 cells; settings: human
Method: as §2, §3, §4

[11] = Cell viability by MTT assay in BPH-1 cells; settings: human
Method: as §2, §3, §4

What does the source list for `COc1cc(O)c(CC=C(C)C)c2c1C(=O)/C(=C/Oc1ccc(O)cc1)O2` [XAL, xanthoaurenol]?
Annexin V(+) 7AAD(+) cells (late apoptosis) (BPH-1 cells [1]): increase; Annexin V(+) 7AAD(−) cells (early apoptosis) (BPH-1 cells [1]): increase; cell viability (number of viable cells) (PC-3 cells [2]): dose-dependent decrease in number of viable; viability decreased to (PC-3 cells [2]; concentration of XAL not given): 55%; NFκB activation (NFκB [3]): No inhibition; G1, percentage of cells in phase (BPH-1 cells [4]; 20 μM, 48 h, mean ± SE, n=3): 45.730 ± 1.376%; cell cycle modification (BPH-1 cells [4]): clear accumulation in the S phase; decrease in NFκB activity (NFκB [5]): 42%; SR-VAD-FMK(+) 7AAD(+) cells (late apoptosis) (BPH-1 cells [6]): increase; SR-VAD-FMK(+) 7AAD(−) cells (caspase activation, early to mid stage apoptosis) (BPH-1 cells [6]): increase; NFκB p65 protein levels in the nuclear fraction (NFκB p65): increased; SR-VAD-FMK stained cells (caspase activation) (PC-3 cells [7]): increase only in late apoptotic SR-VAD-FMK(+) 7AAD(+) cells; expression of pro-apoptotic protein Bax [8]: Increase; expression of pro-apoptotic protein p53 [8]: Increase; expression of anti-apoptotic protein Bcl-2 [8]: decreased expression; cell viability (number of viable cells) (BPH-1 cells [9]): dose-dependent decrease in number of viable; viability decreased to (BPH-1 cells [9]; concentration of XAL not given): 81%

With `COc1cc(O)c(CC=C(C)C)c(O)c1C(=O)/C=C/c1ccc(O)cc1` [XN, xanthohumol] as the compound, how does the “Annexin V(+) 7AAD(+) cells (late apoptosis)” value (BPH-1 cells [1]) read?
Its value is “increase”.

What about the “Annexin V(+) 7AAD(−) cells (early apoptosis)” value (BPH-1 cells [1]) of the same compound?
The value was “increase”.

And the cytotoxicity at 48 h, 20 μM [10]?
The cytotoxicity at 48 h, 20 μM was 43%.

And the “cell viability (number of viable cells)” value (PC-3 cells [2])?
The value was “dose-dependent decrease in number of viable”.

And the NFκB activation (NFκB [3])?
Its NFκB activation is “No inhibition”.

And the cell cycle modification (BPH-1 cells [4])?
The cell cycle modification was “clear accumulation in the S phase”.

What about the “decrease in NFκB activity” value (NFκB [5]) of the same compound?
Its value is 42%.

What about the “SR-VAD-FMK(+) 7AAD(+) cells (late apoptosis)” value (BPH-1 cells [6]) of the same compound?
The value was “increase”.

What about the “SR-VAD-FMK(+) 7AAD(−) cells (caspase activation, early to mid stage apoptosis)” value (BPH-1 cells [6]) of the same compound?
The value was “increase”.

And the “NFκB p65 protein levels in the nuclear fraction” value (NFκB p65)?
Its value is “increased”.

What about the “SR-VAD-FMK stained cells (caspase activation)” value (PC-3 cells [7]) of the same compound?
The value was “increase only in late apoptotic SR-VAD-FMK(+) 7AAD(+) cells”.

What about the “increase in expression of Bax and p53 compared with XAL” value [8] of the same compound?
The value was “larger increase in expression of Bax and p53 than did treatment with XAL”.

What about the “expression of pro-apoptotic protein Bax” value [8] of the same compound?
The value was “Increase”.

And the “expression of pro-apoptotic protein p53” value [8]?
Its value is “Increase”.

What about the “expression of anti-apoptotic protein Bcl-2” value [8] of the same compound?
Its value is “decreased expression”.

What about the “cell viability (number of viable cells)” value (BPH-1 cells [9]) of the same compound?
Its value is “dose-dependent decrease in number of viable”.

And the cytotoxicity at 48 h, 20 μM [11]?
Its cytotoxicity at 48 h, 20 μM is 80%.

For `O=C(O[C@@H]1Cc2c(O)cc(O)cc2O[C@@H]1c1cc(O)c(O)c(O)c1)c1cc(O)c(O)c(O)c1` [epigallocatechin gallate, reference compound], which “cell viability (number of viable cells)” value (BPH-1 cells [9]) is on record?
The value was “did not significantly decrease cell viability”.
